Experimental data as given in paper PMC11184554, “Nature-Inspired Gallinamides Are Potent Antischistosomal Agents: Inhibition of the Cathepsin B1 Protease Target and Binding Mode Analysis” (ACS Infectious Diseases, 2024).
Where “and” joins values, the source holds several entries; their conditions need not be identical. Identical values can stand only once.

Tests used:
recombinant SmCB1 = assay: Kinetic inhibition assay with recombinant SmCB1 (k2nd); type: biochemical, S. mansoni; details: for decrease in inhibitory potency vs gallinamide A: ratio of k2nd values; for SmCB1 inhibition k2nd: second-order rate constant (kinact/Ki), substrate Cbz–Phe–Arg–AMC, pH 5.5, 37 °C, mean ± SE
Description: Gallinamide A and a series of its 18 derivatives were evaluated in vitro as inhibitors of SmCB1 to explore the binding specificities of the subsites in the enzyme’s active site. The gallinamide A inhibitor scaffold can be defined by positions P4 through P1′ (Schechter and Berger nomenclature[37]), which were assigned according to the binding mode analysis (see the crystallographic section below). The substituents R4, R1, and R1′ introduced on the scaffold (Table 2) are numbered according to the respective positions P4, P1, and P1′. The compounds’ second-order rate constants (k2nd) were determined using a kinetic inhibition assay with recombinant SmCB1 and the substrate, Cbz–Phe–Arg–AMC.
Inhibition measurements were performed in duplicate in 96-well microplates (100 μL assay volume) at 37 °C. SmCB1 (40 pM) was added to a mixture of the fluorogenic substrate Cbz–Phe–Arg–AMC (25 μM) and an inhibitor (0–100 μM) in 0.1 M sodium acetate, pH 5.5, containing 2.5 mM dithiothreitol and 0.01% (w/v) BRIJ 35. Substrate hydrolysis was monitored in an Infinite M1000 microplate reader (Tecan) at excitation and emission wavelengths of 360 and 465 nm, respectively, for up to 150 min. An observed first-order rate constant, kobs, was calculated at each inhibitor concentration by fitting the progress curve to the equation P = vi/kobs(1 – exp(−kobst)) + d where P is the product formation, t is the reaction time, vi is the initial velocity, and d is the offset. […] The second-order rate constant, k2nd, (and SE value) was determined by fitting the linear equation kobs = (k2nd[I])/(1 + [S]/Km), where [S] is the substrate concentration, [I] is the inhibitor concentration, and KM is the Michaelis–Menten constant. The KM value determined for SmCB1 was 25 μM. […] To determine IC50 values, SmCB1 (40 pM) was preincubated with the inhibitor (0–100 μM) for 30 min under assay conditions as described above, followed by the addition of the fluorogenic substrate Cbz–Phe–Arg–AMC (20 μM). Substrate hydrolysis was monitored for 30 min in a microplate reader as described above. The IC50 values were determined by nonlinear regression using GraFit software (Erithacus Software).

[1] = tested on: cathepsins B and L (SmCatB/L); assay: Protease activity in extracts of adult worms treated with gallinamides, Cbz–Phe–Arg–AMC; type: cell-based, S. mansoni; details: adult worms incubated with 5 μM compound for 24 h (Figure 2 legend: 48 h); extract assayed with Cbz–Phe–Arg–AMC at pH 5.5
Description: (§1) Adult mixed sex S. mansoni were incubated in the presence of 5 μM gallinamide A, 1, 6, or 9 for 24 h, and protein extracts therefrom were assayed with the cathepsins B and L substrate, Cbz–Phe–Arg–AMC. Protease activity was reduced by ∼95% relative to the activity of untreated controls (Figure 2A). For comparison, we also quantified the activity of the nondigestive proteolytic enzyme, S. mansoni prolyl oligopeptidase (SmPOP). This serine protease, which is localized in the tegument of adult worms, was assayed with the selective substrate Cbz–Gly–Pro–AMC.[44] SmPOP was unaffected by the gallinamide treatment.
(§2) Figure 2 SmCB1 is a target for gallinamides in adult S. mansoni. (A) Mixed sex, adult S. mansoni were incubated for 48 h with 5 μM gallinamide A or 1, 6, and 9. After washing and preparation of worm extract, proteolytic activities (0.2 μg of protein) were measured in a kinetic assay using the cathepsin B and L substrate, Cbz–Phe–Arg–AMC (SmCatB/L, gray bars) at pH 5.5 or the prolyl oligopeptidase substrate, Cbz–Gly–Pro–AMC (SmPOP, white bars) at pH 8.0. Means ± SE of three replicates are normalized to the control not exposed to the inhibitor (set as 100%). (B–D) Imaging of SmCB1 using the gallinamide compound 5 as an activity-based probe. 5 contains an alkyne tag that can be modified by a copper-catalyzed click reaction with a fluorescent reagent (Alexa Fluor 647-azide) (B). Recombinant SmCB1 (rSmCB1, 0.5 μg) (C) or extracts of adult S. mansoni worms (7 μg of protein) (D) were incubated with 5 (10 μM) for 1 h and then clicked. Reactions were resolved by SDS-PAGE, and gels were visualized using a fluorescence scanner (Probe), stained for protein using Coomassie Brilliant Blue (CBB), or analyzed by Western blot with an anti-SmCB1 antibody (WB). In a control experiment, rSmCB1 or worm extract was treated with the […] protease inhibitor E-64 (10 μM), prior to incubation with 5. The positions of rSmCB1, native SmCB1, and its pro-form (pro-SmCB1) are indicated. The mass difference between rSmCB1 and native SmCB1 is caused by glycosylation (see Methods). The active site of the pro-SmCB1 is shielded by a propeptide[45] that prevents effective binding of 5. […]
(§3) Proteolytic activities in S. mansoni adult extracts were measured in a continuous kinetic assay using the following peptidyl fluorogenic substrates (Bachem) or internally quenched FRET substrates (IOCB): 50 μM Cbz–Phe–Arg–AMC for cathepsins B and L,[13],[15] […] Substrate hydrolysis was measured continuously using an Infinite M1000 microplate reader (Tecan) at excitation and emission wavelengths of 360/465 nm for AMC substrates and 320/420 nm for FRET substrates. […]

[2] = tested on: S. mansoni prolyl oligopeptidase (SmPOP); assay: Protease activity in extracts of adult worms treated with gallinamides, Cbz–Gly–Pro–AMC; type: cell-based; details: adult worms incubated with 5 μM compound for 24 h (Figure 2 legend: 48 h); extract assayed with Cbz–Gly–Pro–AMC at pH 8.0
Description: as §1, §2, §3

Compound | decrease in inhibitory potency vs gallinamide A (recombinant SmCB1) [fold] | SmCB1 inhibition k2nd (recombinant SmCB1) | SmCB1 inhibition k2nd (recombinant SmCB1; listed as Cpd.1) [M^–1·s^–1] | protease activity reduced relative to untreated controls [1] [%] | SmPOP activity after gallinamide treatment [2] | SmCB1 inhibition k2nd (recombinant SmCB1; listed as Cpd.6) [M^–1·s^–1] | SmCB1 inhibition k2nd (recombinant SmCB1; listed as Gallinamide A) [M^–1·s^–1]
CCC(C)C(C(=O)OC(CC(C)C)C(=O)NC(CC(C)C)C(=O)NC(C)C=CC(=O)N1C(=O)C=C(OC)C1CC(C)C)N(C)C (stereo not drawn) [compound 1] | 2 | 3394 ± 133 M^–1·s^–1 | 3394 | ~95 | unaffected | – | –
COC1=CC(=O)N(C(=O)/C=C/[C@H](C)NC(=O)[C@H](CC(C)C)NC(=O)[C@H](CC(C)C)OC(=O)[C@H](Cc2ccccc2)N(C)C)[C@H]1Cc1ccccc1 [compound 6] | 3.4 | 1930 ± 304 M^–1·s^–1 | – | ~95 | unaffected | 1930 | –
CCC(C)C(C(=O)OC(CC(C)C)C(=O)NC(CC(C)C)C(=O)NC(C)C=CC(=O)N1C(=O)C=C(OC)C1Cc1ccccc1)N(C)C (stereo not drawn) [compound 9] | 8.4 | 793 ± 75 M^–1·s^–1 | – | ~95 | unaffected | – | –
CC[C@H](C)[C@@H](C(=O)O[C@@H](CC(C)C)C(=O)N[C@@H](CC(C)C)C(=O)N[C@@H](C)/C=C/C(=O)N1C(=O)C=C(OC)[C@@H]1C)N(C)C [gallinamide A] | – | 6644 M^–1·s^–1 and 6644 ± 532 M^–1·s^–1 | – | ~95 | unaffected | – | 6644
